Assay results reported in publication doi:10.1101/2024.09.10.612317v1 (bioRxiv, 2024).

Experiments:
[1] = system: BMDCs; assay: Cytokine, chemokine and growth factor production by BMDCs; format: cell-based, mouse; details: coacervates 10 μM, 24 h, multiplex assays; LPS positive control
[2] = system: BMDCs overlaid with BB7 hybridoma cells; assay: Antigen presentation assay with Ag85B and BB7 hybridoma; format: cell-based, mouse; details: Ag85B ∼0.5 μM, BMDCs to BB7 cells 1:7
[3] = Turbidity and optical microscopy of LLPS; format: physicochemical; details: 0.1 M phosphate buffer pH 7.4, 1M NaCl

coacervates at 1M NaCl (optical micrographs) [3]	Substance	induction of cytokines, chemokines and growth factors in BMDCs [1]	antigen presentation of Ag85B (IL-2) [2]
presence of coacervates	(GHGLY)4 [GL 20]	immunologically inert	enhanced antigen presentation of Ag85B
presence of coacervates	(GHGVY)4 [GV 20]	immunologically inert	enhanced antigen presentation of Ag85B
